Here are results for four molecules from PMC5078010 (Oncotarget, 2016).

Entries after “also recorded” stand apart in the source; their conditions may differ. FAM = carboxyfluorescein

The test system of test [1] is HDM2 variant C8 (residues 1-125) / p53. In words: In vitro pull-down, selectant C8. The class given is binding, human. The settings on record: PM2 10 μM; HDM2 residues 1-125.
Description: (§3) Protein G beads were incubated with anti-HA (1μg per 10μL beads) for 1 hour in PBST-3%BSA and subsequently washed thrice in PBST-0.1%BSA. IVT-expressed protein was incubated with the beads on a rotator for 30 mins. […] IVT-containing secondary protein was added to the mixture and incubation allowed for 1 hour. Beads were finally washed thrice in PBST-0.1%BSA and thrice with PBS, and bound proteins eluted by resuspension in 20μL SDS-PAGE loading buffer and incubation at 95 °C for 5 minutes. Where required, blank IVT extract (no template DNA added) was used as control. The eluates were subjected to electrophoresis, transferred to nitrocellulose membranes and probed for p53 with DO1-HRP or for HDM2 with anti-HA antibody followed by rabbit anti-mouse (Dakocytomation). Image acquisition was carried out using either film or digitally (Odyssey FC, Li-Cor).
For test [2], the system named is wild-type HDM2 (full-length) / p53 in p53/MDM2-null DKO cells. As to the kind of experiment: p53 reporter assay in DKO cells, WT HDM2. The class given is cell-based, mouse. The settings on record: for p53 activity: percentage of p53-alone, ~ 6% without inhibitor. Here is the method: (§1) Mouse embryonic fibroblast p53/Mdm2 double-knockout (DKO) cells (a kind gift from Guillermina Lozano) were maintained in Dulbecco's modified Eagle's medium (DMEM) with 10% (v/v) foetal calf serum (FCS) and 1% (v/v) penicillin/streptomycin. The cells were seeded at 1.0 × 10^5 cells/well in 6-well plates, 24 hours prior to transfection. Cells were co-transfected with parental or individual PM2-resistant HDM2 plasmid, p53-pcDNA plasmid, LacZ reporter plasmid and luciferase transfection efficiency plasmid using TurboFect transfection reagent (Thermo Scientific) according to the manufacturer's instructions. […] In all cases, the total amount of plasmid DNA transfected per well was equilibrated by addition of the parental vector pcDNA3.1a (+).
(§2) DKO cells were harvested 24hours post transfection and β-galactosidase activities were assessed using the Dual-light System (Applied Biosystems) according to the manufacturer's protocol. β-galactosidase activity was normalized with luciferase activity for each sample. To check for expression levels of relevant proteins via western blot, 5 μg of the cell lysates were probed for p53 with horseradish peroxidase conjugated DO1 antibody, for HDM2 and actin with anti-HA antibody and AC15 antibody respectively followed by rabbit anti-mouse.

The test system of test [3] is HDM2 F55L (full length) / p53 in p53/MDM2-null DKO cells. As to the kind of experiment: p53 reporter assay in DKO cells, F55L. The settings on record: knockdown reduced ~[…] vs WT. The class given is cell-based, mouse. Here is the method: as §1, §2
For orientation: Reporter assays use an easily measured gene product as a stand-in for the process of interest.

Test [4] has as its system HDM2 C77R (residues 1-125) / p53. As to the kind of experiment: In vitro pull-down, C77R. The class given is binding, human. The conditions noted are these: N-terminal point mutant C77R.
Description: as §3
The subject of test [5] is HDM2 Y60C (residues 1-125) / p53. As to the kind of experiment: In vitro pull-down, Y60C. Details: species or system human. The conditions noted are these: PM2 10 μM; N-terminal point mutant Y60C; reduced p53 binding.
Description: as §3
Test [6] concerns HDM2 Y67H (N-terminal domain) / p53. In words: In vitro pull-down, Y67H. The class given is binding, human. The settings on record: N-terminal point mutant Y67H.
Description: as §3
Test [7] concerns WT and indicated HDM2 (1-125) single and double point mutants / p53. In words: In vitro pull-down, Fig. S3. In kind it is binding, human.
Description: as §3
Test [8] relates to HDM2 F55L (residues 1-125) / p53. In words: In vitro pull-down, F55L. Details: species or system human. The conditions noted are these: PM2 10 μM; N-terminal point mutant F55L; p53 binding retained.
Description: as §3
For test [9], the system named is HDM2 Y60C (full length) / p53 in p53/MDM2-null DKO cells. In words: p53 reporter assay in DKO cells, Y60C. In kind it is cell-based, mouse. The settings on record: knockdown of p53 activity decreased ~7 fold vs WT. Here is the method:
as §1, §2

In test [10] the test system is WT and indicated C8-derived HDM2 (1-125) point mutants / p53. As to the kind of experiment: In vitro pull-down, Fig. S1A. In kind it is binding, human.
Description: as §3
The test system of test [11] is HDM2 P89S (full length) / p53 in p53/MDM2-null DKO cells. In words: p53 reporter assay in DKO cells, P89S. The class given is cell-based, mouse. The settings on record: PM2. Here is the method: as §1, §2
For test [12], the system named is HDM2 variant C12 (residues 1-125) / p53. In words: In vitro pull-down, selectant C12. The class given is binding, human. The settings on record: PM2 10 μM; HDM2 residues 1-125.
Description: as §3
The test system of a further test is HDM2 Y48C (1-125) / p53. In words: In vitro pull-down, Y48C. In kind it is binding, human. The conditions noted are these: HDM2 (1-125) Y48C.
Test [13] has as its system WT and indicated C11/C12-derived HDM2 (1-125) mutants / p53. In words: In vitro pull-down, Fig. S1B. In kind it is binding, human.
Description: as §3
Test [14] concerns HDM2 L34P (full length) / p53 in p53/MDM2-null DKO cells. In words: p53 reporter assay in DKO cells, L34P. In kind it is cell-based, mouse. The settings on record: knockdown of p53 activity decreased ~7 fold vs WT.
Description: Mouse embryonic fibroblast p53/Mdm2 double-knockout (DKO) cells (a kind gift from Guillermina Lozano) [58] were maintained in Dulbecco's modified Eagle's medium (DMEM) with 10% (v/v) foetal calf serum (FCS) and 1% (v/v) penicillin/streptomycin. The cells were seeded at 1.0 × 10^5 cells/well in 6-well plates, 24 hours prior to transfection. […] In all cases, the total amount of plasmid DNA transfected per well was equilibrated by addition of the parental vector pcDNA3.1a (+).
Test [15] concerns HDM2 P89S (residues 1-125) / p53. As to the kind of experiment: In vitro pull-down, P89S. Details: species or system human. The settings on record: PM2 10 μM; N-terminal point mutant P89S; p53 binding retained.
Description: as §3
The test system of test [16] is HDM2-F55L (residues 7-134, RFP fusion) / p53 (residues 1-81, GFP fusion) in F2H-BHK cells. In words: Fluorescent two-hybrid (F2H) co-localization assay. The settings on record: PM2 0-50 μM, 6-8 hours, serum-free DMEM, 37°C; n=2. In kind it is cell-based.
The next test concerns HDM2 F55A (1-125) / p53. As to the kind of experiment: In vitro pull-down, F55A. The class given is binding, human. The settings on record: HDM2 (1-125) F55A.
The subject of the next test is HDM2 K36E (1-125) / p53. In words: In vitro pull-down, K36E. The class given is binding, human. The conditions noted are these: HDM2 (1-125) K36E.
For test [17], the system named is HDM2 V108A (N-terminal domain) / p53. As to the kind of experiment: In vitro pull-down, V108A. The class given is binding, human. The conditions noted are these: N-terminal point mutant V108A.
Description: as §3
Test [18] deals with C8-derived point mutants in full-length HDM2 / p53. As to the kind of experiment: In vitro pull-down, full-length point mutants. The conditions noted are these: PM2 10 μM; full-length HDM2, mutations displaying the PM2-resistant phenotype. The class given is binding, human.
Description: as §3
The test system of test [19] is HDM2 I99V (full length) / p53 in p53/MDM2-null DKO cells. In words: p53 reporter assay in DKO cells, I99V. The class given is cell-based, mouse. The settings on record: knockdown reduced ~[…] vs WT. The procedure:
as §1, §2

Test [20] relates to HDM2 L34P (residues 1-125) / p53. As to the kind of experiment: In vitro pull-down, L34P. Details: species or system human. The conditions noted are these: PM2 10 μM; N-terminal point mutant L34P; reduced p53 binding.
Description: as §3
Test [21] concerns HDM2 I99V (residues 1-125) / p53. In words: In vitro pull-down, I99V. Details: species or system human. The conditions noted are these: PM2 10 μM; N-terminal point mutant I99V; p53 binding retained.
Description: as §3
The test system of test [22] is HDM2-C8 (full-length) / p53 in p53/MDM2-null DKO cells. As to the kind of experiment: p53 reporter assay in DKO cells, HDM2-C8. The class given is cell-based, mouse. Here is the method:
as §1, §2

Test [23] has as its system HDM2 variant C11 (residues 1-125) / p53. As to the kind of experiment: In vitro pull-down, selectant C11. The class given is binding, human. The settings on record: PM2 10 μM; HDM2 residues 1-125.
Description: as §3
Test [24] has as its system HDM2-C8 (residues 1-125), M62A reverted / p53. As to the kind of experiment: In vitro pull-down, C8 with M62A reverted. The class given is binding, human.
Description: as §3
The test system of test [25] is xenograft tumours in mice; p53. Also on record: method as in PMID 25145672, PMID 26070072. The conditions noted are these: cited from earlier work.
A further test deals with HDM2 L82P. The conditions noted are these: at the cost of reduced p53 binding; cited from earlier work. From the text: The crystal structure of the stapled peptide M06 bound to HDM2-M62A was recently described. […] The side chains of L34 and Y60 pack against numerous hydrophobic residues contributing to the p53-binding hydrophobic cleft (Figure 8). Mutations to less bulky residues (P and C respectively) likely result in altered struc ...

The test system of a further test is HDM2 M62A. The settings on record: M62A mutation; earlier selection of Nutlin-resistant HDM2; cited from earlier work.
In test [26] the target is T1, HDM2 (amino acids 1-125), recombinant (human, UniProt Q00987 1-125).
T1 construct: also called WT HDM2; source: E. coli BL21(DE3) pLysS, purified (GSTrap, on-column PreScission cleavage, Resource S cation exchange)
In words: fluorescence polarisation; competitive fluorescence anisotropy, apparent Kd; PM2 or p53 peptide titrated against wild-type HDM2 at 150 nM or HDM2-F55L at 200 nM with 50 nM FAM-12-1 peptide; PBS pH 7.4, 3% DMSO, 0.1% Tween-20. The conditions noted are these: both partners purified. In general terms: Fluorescence polarisation rises when a labelled molecule tumbles more slowly, as on binding a larger partner.

Test [27] deals with T2, HDM2-F55L (amino acids 1-125), recombinant (human, UniProt Q00987 1-125, F55L).
T2 construct: also called mutant HDM2-F55L; source: E. coli BL21(DE3) pLysS, purified (GSTrap, on-column PreScission cleavage, Resource S cation exchange)
The description is as above. The conditions noted are these: both partners purified.

T2 sequence (Q00987 1-125 F55L): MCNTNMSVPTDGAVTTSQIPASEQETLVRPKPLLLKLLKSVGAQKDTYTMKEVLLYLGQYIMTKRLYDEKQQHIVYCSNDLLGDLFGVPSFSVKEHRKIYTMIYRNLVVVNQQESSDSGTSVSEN
T1 sequence (Q00987 1-125): as the sequence (Q00987 1-125 F55L) above, with L55F counted along it
Description for HDM2 F55A (1-125) / p53: as §3
Description for HDM2 K36E (1-125) / p53: as §3
Description for HDM2 Y48C (1-125) / p53: as §3

Consider `CC(=O)N[C@H](C(=O)N[C@@H](CO)C(=O)N[C@@H](Cc1ccccc1)C(=O)N[C@]1(C)CCCCCCC=CCCC[C@@](C)(C(N)=O)NC(=O)[C@H](CC(C)C)NC(=O)[C@H](CC(C)C)NC(=O)[C@H](C)NC(=O)[C@H](Cc2c[nH]c3ccccc23)NC(=O)[C@H](Cc2ccc(O)cc2)NC(=O)[C@H](CCC(=O)O)NC1=O)[C@@H](C)O` [PM2], for which the “PM2 resistance (inhibition of p53 pull-down)” value is “appeared significantly resistant to PM2, with little or no reduction in their interaction with p53 in the presence of PM2” in test [1]; “showed no PM2-resistance phenotype” in [4]; “clearly resistant to PM2 binding” in test [5]; “showed no PM2-resistance phenotype” in test [6]; “showed weak resistance to PM2” in test [8]; “appeared significantly resistant to PM2, with little or no reduction in their interaction with p53 in the presence of PM2” in test [12]. Moreover, the “PM2 resistance (inhibition of p53 pull-down)” value in test [15] is recorded as “showed weak resistance to PM2”; in test [17], “showed no PM2-resistance phenotype”; in test [18], “reduced inhibition by PM2; also recorded: behaved similarly when introduced as point mutants into full-length HDM2”; in test [20], “clearly resistant to PM2 binding”; in test [21], “showed weak resistance to PM2”; in test [23], “appeared significantly resistant to PM2, with little or no reduction in their interaction with p53 in the presence of PM2”. Moreover, the p53 activity in [2] (PM2 20 μM) was ~ 26%. Besides, the “magnitude of rescue of p53 activity by PM2” value is reported as ~ 4 fold in test [2] (comparison with F55L and I99V (Figures 6B, 6C)); ~ 3.2 fold in [3]; ~ 3.2 fold in test [19]. Also, the “PM2 inhibition of p53 pull-down” value in [7], in test [10] and in test [13] was “no significant reduction in PM2 inhibition” throughout. The “rescue of p53 activity by PM2” value in [9] and in test [14] was “no rescue observed” throughout. The “behaviour in p53 reporter assay” value in test [11] was “essentially behaved like wild-type HDM2”. Also, the “resistance phenotype (p53 pull-down)” value with HDM2 Y48C (1-125) / p53 and in the test on HDM2 K36E (1-125) / p53 was “Only the L54P mutation showed an exceptionally weak resistance phenotype” in each case. The “inhibition of p53-HDM2 F55L interaction compared to WT” value in [16] was “no significant difference compared to WT for inhibition”. Moreover, the “effect of F55A on interaction with p53 or PM2” value with HDM2 F55A (1-125) / p53 is given as “make little difference towards interaction with p53 or PM2”. In addition, the “increase in p53 activity on addition of PM2” value in test [22] (PM2 20 μM) is reported as “did not result in any significant increase in p53 activity”. Also, the “PM2 resistance after reversion of M62A in C8” value in test [24] is “little impact upon reversion of the M62A mutation to PM2 binding in HDM2-C8; also recorded: reversion of this mutation in the C8 selectant did not alter the phenotype”.
Consider `CC(C)(C)C[C@@H]1N[C@@H](C(=O)N[C@H]2CC[C@H](O)CC2)[C@H](c2cccc(Cl)c2F)[C@]12C(=O)Nc1cc(Cl)ccc12` [SAR405838], for which the development of resistance entry in test [25] is reported as “development of resistance to the Nutlin analogue SAR405838 was associated with a point-mutated p53 that still retained activity”.
Take Nutlin [reference compound]: the p53 activity in test [2] (Nutlin 10 μM) is recorded as ~ 26%. Moreover, in the test on HDM2 L82P, the “resistance of L82P to Nutlin binding” value is on record as “resistant to Nutlin binding at the cost of reduced p53 binding”. Besides, the “rescue of p53 activity by Nutlin” value in test [9] is given as “no rescue observed”. Besides, the “effect of M62A on Nutlin binding” value with HDM2 M62A is “shown to abrogate Nutlin binding”. Besides, the “effect of Nutlin on C8 function” value in test [22] (Nutlin 10 μM) is on record as “had little effect in abrogating the function of C8”.

B1: carboxyfluorescein (FAM) labelled 12-1 peptide (peptide)
peptide: {FAM}-RFMDYWEGL-NH2
notes: tracer peptide of the fluorescence anisotropy assay; also called the labelled peptide
In the case of B1, the binding result in test [26] and in [27] was “binds” in each case.
